Where two headings read alike, the source gives them in different places. Marks after values point to notes of the source that are not given here. Residues, ends and D or L forms follow the SMILES beside them. *: point of attachment. Cbz = O=C(OCc1ccccc1)*
Key:
[1] = molecular target: Chymotrypsin; details: read-out: Ki(obs), cited from earlier work
[2] = test system: Chymotrypsin; assay: Binding of inhibitors to chymotrypsin; type: biochemical; details: for KiIH/KiICOOH: pH 7.2, ratio of Ki(obs) of peptide-H to peptide-COOH; for KiIH/KiICHO or KiIH/KiICOCHO: fold increase in binding due to aldehyde or glyoxal group
[3] = cited from earlier work; for KH1: KH1 = KH1obs/[H2O], 25 °C
[4] = test system: α-Chymotrypsin; details: equilibrium constant for hemiketal formation; cited from earlier work
[5] = hydration of glyoxal keto group

| fold tighter binding on replacing the α-carboxylate group with a hydrogen atom [2] | KiIH/KiICOOH [2] | KiIH/KiICHO or KiIH/KiICOCHO [2] | Compound | Ki ([1]; pH 7.2, 25 °C) [µM] | Ki ([1]; 25 °C) [µM] | KH1 [3] | KH1(obs) ([3]; hydration of aldehyde group) | KHK [4] | KH1(obs) [3, 5] | KiIH/KiICHO or KiIH/KiICOCHO ([2]; listed as Z-APF-COCHO) |
| --- | --- | --- | --- | --- | --- | --- | --- | --- | --- | --- |
| 3–4 fold | 0.32 |  | Cbz-Ala-Pro-Phe-OH [ZAPF-COOH] | 241 ± 7 |  |  |  |  |  |  |
|  |  |  | CC(NC(=O)OCc1ccccc1)C(=O)N1CCCC1C(=O)NC(C=O)Cc1ccccc1 (stereo not drawn) [ZAPF-H, Z-Ala-Pro-Phe-H] (Cbz-Ala-Pro-Phe-aldehyde; configuration not given here) | 77.4 ± 6.4 |  |  |  |  |  |  |
|  |  | 100 | C[C@H](NC(=O)OCc1ccccc1)C(=O)N[C@@H](C)C(=O)N[C@@H](Cc1ccccc1)C(=O)C=O [ZAAF-CHO, Z-Ala-Ala-Phe-CHO] |  | 1.7 ± 0.4 | 0.25 | 13.9 ^e |  |  |  |
| 3–4 fold | 0.31 |  | Cbz-Ala-Ala-Phe-OH [ZAAF-COOH] | 532 ± 50 |  |  |  |  |  |  |
|  |  | 455 | CC(NC(=O)OCc1ccccc1)C(=O)NC(C)C(=O)NC(Cc1ccccc1)C(=O)C=O (stereo not shown) [ZAAF-COCHO] | 0.365 |  | 0.0284 |  | 1170 | 1.58 ^d |  |

| Compound | fold tighter binding on replacing the α-carboxylate group with a hydrogen atom [2] | KiIH/KiICOOH [2] | KiIH/KiICHO or KiIH/KiICOCHO [2] | Ki ([1]; pH 7.2, 25 °C) [µM] | Ki ([1]; 25 °C) [µM] | KH1 [3] | KH1(obs) ([3]; hydration of aldehyde group) | KHK [4] | KH1(obs) [3, 5] | KiIH/KiICHO or KiIH/KiICOCHO ([2]; listed as Z-APF-COCHO) |
| --- | --- | --- | --- | --- | --- | --- | --- | --- | --- | --- |
| C[C@H](NC(=O)OCc1ccccc1)C(=O)N1CCC[C@H]1C(=O)N[C@@H](Cc1ccccc1)C(=O)C=O [ZAPF-COCHO] |  |  | 2310 | 0.0335 |  | 0.023 |  | 5270 | 1.28 ^c | 460–2300 |

Reference: article PMC7185411 (Biochimica et Biophysica Acta. Proteins and Proteomics, 2015)
